Key:
Fab317 = assay: ITC affinity measurement of peptides to Fab317; assay type: binding, human; settings: for Kd / No. of sites: ITC, 25 °C, Dulbecco's PBS, Fab317 9.7 μM in cell, single-site model
Procedure: (§1) ITC affinity measurements were performed using a MicroCal Auto-iTC200 instrument (GE Healthcare). […]
(§2) General. All peptides were ordered from Innopep Inc. with a 10-μg/mL solution of the Fab of interest in blocking buffer. The purity of >98% and contained chlorine counter ions. The pep- membrane was then washed three times for 5 min each in TBST tides have N-terminal acetylation and C-terminal amidation to buffer, after which it was incubated for 2 h with an anti-human eliminate charges at the peptide termini. Fab genes were codon Fab secondary antibody conjugated to HRP (Sigma-Aldrich) at a optimized, synthesized, and cloned into pHCMV3 vectors by 1:20,000 dilution in blocking buffer. […]
(§3) Antibodies 311 and 317 were selected forITC. A MicroCal Auto-iTC200 (GE Healthcare) was used to structural studies because of their functional activity, high avidity perform ITC measurements. Before the experiments, all proteins index, and similar heavy-chain germline genes. were extensively dialyzed against Dulbecco’s PBS (Thermo Evaluation of the Protective Activity of mAbs. mAbs (100 μg for Fischer). The peptides were placed in the syringe at a concentration Ab311 and 300 μg for Ab317 and Ab2A10) against the NANP of 122μM for Ac-NPNANPNA-NH2, 116 μM for Ac-repeats of P. falciparum CSP were administered to 7- to 8-wk-old NPNANPNANPNA-NH2,89μM for Ac-[…]- […]
(§4) C57BL/6 mice (five mice per group) by i.v. injection [in 200 μLof NH2, and 110 μM for Ac-DPNANPNVDPNA-NH2, whereas the […]
(§5) PBS (pH 7.4)]. The mice were challenged 5–10 min later by i.v. concentrations of Fab fragments in the cell were 10.3 and 9.7 μM injection with 2,000 P. berghei chimeric sporozoites expressing for Fab311 and Fab317, respectively. The Fab and peptide P. falciparum CSP (3D7 strain) generated as previously described concentrations were determined by UV absorbance at 280 nm (22). Forty hours later, livers were harvested, and RNA was and 205 nm. Molar extinction coefficients for the peptides were isolated to quantify the malaria-specific 18s rRNA levels by real- estimated using a previously published method (35). Experi-time PCR (34). Inhibition of parasite development was calcu- ments were carried out in triplicate at 25 °C, except for lated by comparing the parasite liver burdens of experimental Fab317 binding to Ac-[…]-NH2, which was […]
(§6) and naive control mice. The statistical analyses were done with done in duplicate, and consisted of 16 injections of 2.45 μL each, the Mann–Whitney U test. Data were plotted using GraphPad with injection duration of 4.9 s, inject io n interval of 180 s, and Prism 6.0 software. No samples were excluded from statistical reference power of 5 μCa l. Fi tt in g of the integrate d titrati on analyses. peaks was performed with Origin 7.0 software using a single-site binding model. The first data point and any outliers were Expression and Purification of Recombinant CSP. The rsCSP con- excluded from the fit. […]
(§7) Two 1-L NaCl, 2.7 mM KCl, pH 8.0) with a 5:1 molar ratio of (NPNA)3 cultures were inoculated the next day with 25 mL overnight peptide to Fab. Crystals were grown using sitting-drop vapor culture and were grown at 37 °C. When the optical density at diffusion with a well solution containing 0.1 M MES (pH 6.0), 600 nm reached a value of 1, the cultures were induced with 36% PEG400, 5% PEG3000 for the Fab311–peptide complex, 1 mM isopropyl β-D-1-thiogalactopyranoside for 6 h. The cells and 0.1 M sodium citrate (pH 4.0), 1 M lithium chloride, 20% then were harvested and lysed by microfluidization. The lysate PEG6000 for the Fab317–peptide complex. Crystals were grown was incubated overnight with Ni cOmplete resin (Roche) and at 298 K and typically appeared within 3 d. Fab311–peptide was eluted using a buffer containing 200 mM imidazole. Typi- crystals were cryo-cooled without additional cryoprotection, cally, 10 mg of protein was obtained per 2 L of culture. Samples while Fab317–peptide crystals were cryoprotected by soaking in […]

Fab311 = assay: ITC affinity measurement of peptides to Fab311; assay type: binding, human; settings: for affinity/Kd compared with the (NPNA)3 peptide: Fab311, ITC, change vs (NPNA)3; for Kd / No. of sites: ITC, 25 °C, Dulbecco's PBS, Fab311 10.3 μM in cell, peptide 89–122 μM in syringe, single-site model, average and SD of triplicate experiments
Procedure: as §1, §2, §3, §4, §5, §6, §7

[1] = peptide 110–122 μM in syringe, average and SD of triplicate experiments
[2] = peptide 89 μM in syringe, duplicate experiments

Molecule: CC(=O)N[C@@H](CC(N)=O)C(=O)N1CCC[C@H]1C(=O)N[C@@H](CC(N)=O)C(=O)N[C@@H](C)C(=O)N[C@@H](CC(N)=O)C(=O)N1CCC[C@H]1C(=O)N[C@@H](CC(N)=O)C(=O)N[C@@H](C)C(N)=O [(NPNA)2, Ac-NPNANPNA-NH2]
- Kd increase compared with (NPNA)3 (Fab317; Fab317, ITC, vs (NPNA)3): 2.2 fold
- Kd (Fab317; [1]): 173 ± 8 nM
- No. of sites (Fab317; [1]): 1.41 ± 0.05
- affinity/Kd compared with the (NPNA)3 peptide (Fab311): almost identical to that of the (NPNA)3 peptide
- Kd (Fab311): 296 ± 19 nM
- No. of sites (Fab311): 1.50 ± 0.08

Molecule: CC(=O)N[C@@H](CC(N)=O)C(=O)N1CCC[C@H]1C(=O)N[C@@H](CC(N)=O)C(=O)N[C@@H](C)C(=O)N[C@@H](CC(N)=O)C(=O)N1CCC[C@H]1C(=O)N[C@@H](CC(N)=O)C(=O)N[C@@H](C)C(=O)N[C@@H](CC(N)=O)C(=O)N1CCC[C@H]1C(=O)N[C@@H](CC(N)=O)C(=O)N[C@@H](C)C(N)=O [(NPNA)3, Ac-NPNANPNANPNA-NH2]
- Kd (Fab317; [1]): 78 ± 16 nM
- No. of sites (Fab317; [1]): 1.27 ± 0.02
- Kd (Fab311): 305 ± 60 nM
- No. of sites (Fab311): 0.74 ± 0.02

Molecule: Ac-DPNANPNVDPNA-NH2 [DPNANPNVDPNA, Ac-DPNANPNVDPNA-NH2]
- Kd (Fab317; [1]): 448 ± 68 nM
- No. of sites (Fab317; [1]): 1.64 ± 0.05
- affinity/Kd compared with the (NPNA)3 peptide (Fab311): approximately fivefold lower affinity
- Kd (Fab311): 1370 ± 390 nM
- No. of sites (Fab311): 1.20 ± 0.03

Molecule: Ac-NPNVDPNANPNV-NH2 [NPNVDPNANPNV, Ac-NPNVDPNANPNV-NH2]
- relative affinity (in words) (Fab317; Fab317, ITC, NVDP-containing peptides, comparator not clearly stated): substantially lower
- Kd (Fab317; [2]): 12100 ± 2490 nM
- No. of sites (Fab317; [2]): 1.72 ± 0.13
- affinity/Kd compared with the (NPNA)3 peptide (Fab311): approximately fivefold lower affinity
- Kd (Fab311): 1790 ± 189 nM
- No. of sites (Fab311): 1.24 ± 0.02

Source: article PMC5715787, “Structural basis for antibody recognition of the NANP repeats in Plasmodium falciparum circumsporozoite protein” (Proceedings of the National Academy of Sciences of the …, 2017)
